biological target: T1, SCD1 (Mus musculus, UniProt P13516); test: SCD assay: release of tritiated water from desaturation of 9,10-3H-stearoyl CoA by mouse liver microsomes; type: biochemical; details: mouse liver microsomes as SCD source; 300 nM (9,10)3H-stearoyl CoA; 25 minutes at room temperature; read-out: IC50 (in vitro inhibition of SCD1)
T1 construct: Mouse liver microsomes, prepared from mice fed a high-carbohydrate diet, were a source of the SCD; from tissue; host or cells: mouse liver microsomes (mice fed a high-carbohydrate diet)
T1 sequence (P13516 1-355): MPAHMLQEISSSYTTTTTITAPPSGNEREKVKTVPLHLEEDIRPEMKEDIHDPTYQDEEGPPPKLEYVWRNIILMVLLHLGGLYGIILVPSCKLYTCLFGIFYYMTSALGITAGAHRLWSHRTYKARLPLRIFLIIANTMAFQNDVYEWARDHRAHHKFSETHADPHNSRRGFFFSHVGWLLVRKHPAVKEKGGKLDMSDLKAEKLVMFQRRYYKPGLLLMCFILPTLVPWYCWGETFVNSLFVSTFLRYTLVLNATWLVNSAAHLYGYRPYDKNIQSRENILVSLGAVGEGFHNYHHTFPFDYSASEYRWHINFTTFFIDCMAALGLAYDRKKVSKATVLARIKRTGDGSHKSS
Text: Stearoyl CoA desaturase activity was monitored by a modification of the acyl carrier protein assay described by B. R. Talamo and K. Bloch in Anal. Biochem. 1968, 29, 300-304. The SCD assay monitors the release of tritiated water from the desaturation of 9,10-^3H-stearoyl CoA.
Mouse liver microsomes, prepared from mice fed a high-carbohydrate diet, were a source of the SCD and cyt b5 and cyt b5 reductase, necessary accessory proteins for the coupled reaction. Reaction mixtures for compound titrations contained 50 mM Tris HCl pH 7.5, 100 mM NaCl, 0.165 mg/ml BSA, 2.4% DMSO, 1 mM NADH, 0.03% T-20, and 300 nM (9,10)^3H-stearoyl CoA (Perkin-Elmer). Reactions were initiated upon the addition of 4 ug/ml SCD microsomes. Incubations were terminated after 25 minutes at room temperature with cold 6% TCA. After standing 10 minutes at 4° C., samples were centrifuged 15 minutes at 4000 rpm to pellet precipitated protein. Supernatants were added to microtiter plates containing suspensions of activated charcoal (Darco G-60, Fisher Scientific) and mixed by inversion. Plates were then centrifuged to separate ^3H—H2O product from charcoal-bound reactants. Supernatants were quantitated in a Perkin Elmer Topcount 384 after solubilization in ScintiSafe Plus 50% (Fisher Scientific).
Inhibition (%) of SCD activity by compounds was calculated according to the following formula: % Inhibition=100*[1−(CPMsample−CPMblank)/(CPMtotal−CPMblank)]

IC50	SMILES
2700 nM	NC(=O)c1cc(-c2ccc(OCc3ccccc3C(F)(F)F)c(Cl)c2)no1 [Example 55, 3-[3-Chloro-4-(2-trifluoromethyl-benzyloxy)-phenyl]-isoxazole-5-carboxylic acid amide]
230 nM	NC(=O)c1cc(-c2ccc(Cn3nnc4ccccc43)cc2)no1 [Example 48, 3-(4-Benzotriazol-1-ylmethyl-phenyl)-isoxazole-5-carboxylic acid amide]
2800 nM	NC(=O)c1cc(-c2ccc(CN3Cc4ccccc4C3)cc2)no1 [Example 46, 3-[4-(1,3-Dihydro-isoindol-2-ylmethyl)-phenyl]-isoxazole-5-carboxylic acid amide]
650 nM	CC(C)(C)c1ccccc1OCc1ccc(-c2cc(C(N)=O)on2)cc1 [Example 35, 3-[4-(2-tert-Butyl-phenoxymethyl)-phenyl]-isoxazole-5-carboxylic acid amide]
210 nM	CCc1ccccc1OCc1ccc(-c2cc(C(N)=O)on2)cc1 [Example 34, 3-[4-(2-Ethyl-phenoxymethyl)-phenyl]-isoxazole-5-carboxylic acid amide]
24 nM	NC(=O)c1cc(-c2ccc(CN3CCCc4ccccc43)cc2)no1 [Example 52, 3-[4-(3,4-Dihydro-2H-quinolin-1-ylmethyl)-phenyl]-isoxazole-5-carboxylic acid amide]
380 nM	CC(C)c1ccccc1OCc1ccc(-c2cc(C(N)=O)on2)cc1 [Example 32, 3-[4-(2-Isopropyl-phenoxymethyl)-phenyl]-isoxazole-5-carboxylic acid amide]

More lines, now with the values behind:

SMILES	IC50
NC(=O)c1cc(-c2ccc(OCc3cccc(F)c3)cc2)no1 [Example 16, 3-[4-(3-Fluoro-benzyloxy)-phenyl]-isoxazole-5-carboxylic acid amide]	450 nM
COc1cccc(OCc2ccc(-c3cc(C(N)=O)on3)cc2)c1 [Example 29, 3-[4-(3-Methoxy-phenoxymethyl)-phenyl]-isoxazole-5-carboxylic acid amide]	340 nM
NC(=O)c1cc(-c2ccc(OCc3c(Cl)cccc3Cl)cc2)no1 [Example 6, 3-[4-(2,6-Dichloro-benzyloxy)-phenyl]-isoxazole-5-carboxylic acid amide]	2600 nM
NC(=O)c1cc(-c2ccc(OCc3ccccc3I)cc2)no1 [Example 11, 3-[4-(2-Iodo-benzyloxy)-phenyl]-isoxazole-5-carboxylic acid amide]	410 nM
COc1ccccc1OCc1ccc(-c2cc(C(N)=O)on2)cc1 [Example 28, 3-[4-(2-Methoxy-phenoxymethyl)-phenyl]-isoxazole-5-carboxylic acid amide]	170 nM
NC(=O)c1cc(-c2ccc(OCc3ccccc3F)cc2)no1 [Example 8, 3-[4-(2-Fluoro-benzyloxy)-phenyl]-isoxazole-5-carboxylic acid amide]	560 nM
Cc1cccc(OCc2ccc(-c3cc(C(N)=O)on3)cc2)c1 [Example 27, 3-(4-m-Tolyloxymethyl-phenyl)-isoxazole-5-carboxylic acid amide]	560 nM
NC(=O)c1cc(-c2ccc(COc3cccc(Cl)c3)cc2)no1 [Example 24, 3-[4-(3-Chloro-phenoxymethyl)-phenyl]-isoxazole-5-carboxylic acid amide]	290 nM

system: not given; test: not given; details: not given

melting point	SMILES
221 to 222 °C	NC(=O)c1cc(-c2ccc(OCc3cccc(F)c3)cc2)no1 [Example 16, 3-[4-(3-Fluoro-benzyloxy)-phenyl]-isoxazole-5-carboxylic acid amide]

Source: US9296711B2, “Substituted isoxazole amide compounds as inhibitors of stearoyl-CoA desaturase 1 (SCD1)” (Hoffman-La Roche Inc., priority 2012, dated 2016)
